Measured values from paper PMC6405842, “Identification of a novel scaffold for a small molecule GPR139 receptor agonist” (Scientific Reports, 2019).
Positions count from the first letter of the chain named.

Legend:
Format in all cases: cell-based
GPR139 F109A^3×33 = target: T1, GPR139 F109A^3×33 (Homo sapiens, UniProt Q6DWJ6, F109A); assay: Ca2+ mobilization on GPR139 mutant F109A
T1 construct: myc (N); expressed in transfected cells
T1 sequence (Q6DWJ6 1-353 F109A): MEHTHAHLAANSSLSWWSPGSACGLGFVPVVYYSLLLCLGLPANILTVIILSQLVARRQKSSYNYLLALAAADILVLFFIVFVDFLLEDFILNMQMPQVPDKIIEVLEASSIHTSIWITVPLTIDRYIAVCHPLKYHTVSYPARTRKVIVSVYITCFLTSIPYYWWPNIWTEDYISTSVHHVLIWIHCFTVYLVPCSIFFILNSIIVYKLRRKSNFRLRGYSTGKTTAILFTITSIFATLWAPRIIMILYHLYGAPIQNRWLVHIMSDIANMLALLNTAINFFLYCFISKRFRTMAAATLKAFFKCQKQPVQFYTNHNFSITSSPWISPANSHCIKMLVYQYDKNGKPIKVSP
Procedure: (§1) Figure 4 Ca^2+ mobilization concentration-response curves of AC4 on GPR139 wild-type (WT) and mutants. Data is shown from a representative experiment (mean ± S.D.) out of three independent experiments performed in duplicate. Data is normalized to the Ca^2+ response of buffer (0%) and 100 μM AC4 (100%) on myc-GPR139(WT). Residue numbering in superscript is according to GPCRdb numbering system.
(§2) The mutational studies were performed as previously described.

GPR139 W241H^6×48 = target: T2, GPR139 W241H^6×48 (Homo sapiens, UniProt Q6DWJ6, W241H); assay: Ca2+ mobilization on GPR139 mutant W241H
T2 construct: myc (N); expressed in transfected cells
T2 sequence (Q6DWJ6 1-353 W241H): T1 sequence (Q6DWJ6 1-353 F109A) with A109F, W241H
Procedure: as §1, §2

GPR139 F109L^3×33 = target: T3, GPR139 F109L^3×33 (Homo sapiens, UniProt Q6DWJ6, F109L); assay: Ca2+ mobilization on GPR139 mutant F109L; details: highest tested concentration (100 μM), n = 3
T3 construct: myc (N); expressed in transfected cells
T3 sequence (Q6DWJ6 1-353 F109L): T1 sequence (Q6DWJ6 1-353 F109A) with A109L
Procedure: as §1, §2

Ca2+ response (GPR139 F109A^3×33): no measurable Ca^2+ response
Emax (GPR139 W241H^6×48; mutant W241H, n = 3): 37 ± 3%
fold change of EC50 on W241H versus WT (GPR139 W241H^6×48; printed as lower EC50 than on WT): 12 fold
Ca2+ response (GPR139 F109L^3×33): 17 ± 2 % of WT
SMILES: O=C(O)C1CC=CCC1c1nnc(CSc2ccc(Cl)cc2)o1 (stereo not shown) [AC4]
